Eight molecules from patent US4795758A, “5-[2-(pyrrolidin-1-yl)ethoxy]-p-cymene derivatives, the process for the preparation of the said derivatives and drugs in which the said derivatives are present” (priority 1987, dated 1989) can be followed below.

Data set [1] has as its target T1, isolated ductus deferens of rats (Rattus norvegicus, UniProt P43140).
T1 construct: Norepinephrine causes contractions of the isolated ductus deferens of rats; from tissue; host or cells: isolated ductus deferens of rats
T1 sequence (P43140 1-466): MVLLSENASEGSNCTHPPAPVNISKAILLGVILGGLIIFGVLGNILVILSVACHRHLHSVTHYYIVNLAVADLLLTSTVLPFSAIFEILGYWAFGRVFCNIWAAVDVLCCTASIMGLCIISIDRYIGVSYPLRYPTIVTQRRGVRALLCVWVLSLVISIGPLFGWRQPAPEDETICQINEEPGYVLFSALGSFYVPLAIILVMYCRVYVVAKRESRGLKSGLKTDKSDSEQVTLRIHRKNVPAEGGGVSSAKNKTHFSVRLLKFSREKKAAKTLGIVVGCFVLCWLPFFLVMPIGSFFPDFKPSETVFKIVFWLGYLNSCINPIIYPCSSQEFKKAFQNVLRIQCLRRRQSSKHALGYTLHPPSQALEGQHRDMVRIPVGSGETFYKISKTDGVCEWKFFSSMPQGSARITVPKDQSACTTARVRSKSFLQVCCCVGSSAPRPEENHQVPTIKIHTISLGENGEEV
Put plainly: In vitro α-adrenolytic activity on isolated ductus deferens. The settings on record: negative log of molar concentration requiring doubled norepinephrine concentration, read-out: pA2, α-blocking action towards norepinephrine on isolated ductus deferens (converted). The source says: (§1) 2.1. - In vitro α-adrenolytic activity
(§2) This was studied on the ductus deferens of rats and on the urethra of rabbits.
(§3) Norepinephrine causes contractions of the isolated ductus deferens of rats and the isolated urethra of rabbits. The presence of α-blocking substances in a bath containing the organ antagonizes these contractions; the use of increasing concentrations of α-blocking substances makes it possible to calculate:
the pA2 of the compounds on the ductus deferens of rats, the pA2 being the negative logarithm of that molar concentration of the product in the presence of which the concentration of norepinephrine has to be doubled in order to obtain the same effect as in the absence of the product; and […]

The next data set concerns arterial pressure. The experiment in a line: Urethral specificity in anesthetized dogs: arterial hypotension. The format is in vivo. The following applies: i.v., dose causing 20% arterial hypotension. The source says:
(§4) The effect of products B 1007, B 1024, B 1125 and B 1134, injected intravenously, on the neurogenic urethral hypertension and the arterial pressure was investigated on anesthetized dogs.
(§5) α-Blocking substances antagonize these increases in urethral pressure as a function of dose and cause arterial hypotension through a blocking action on the vascular receptors.
(§6) The dose which causes a 50% inhibition of the effects of stimulation of the hypogastric nerve on the urethral pressure (ID50) and the dose which causes a 20% arterial hypotension (ED20) are calculated.

Data set [2] has as its system neurogenic urethral hypertension (stimulation of the hypogastric nerve). The experiment in a line: Urethral specificity in anesthetized dogs: neurogenic urethral hypertension. The format is in vivo. The following applies: Canis lupus familiaris, iv, 50% inhibition of effect of hypogastric nerve stimulation on urethral pressure, read-out: Neurogenic urethral hypertension ID50.
Description: as §4
Electrical stimulation of the hypogastric nerve causes an increase in the urethral pressure by releasing norepinephrine from the sympathetic fibers of the nerve.
as §5, §6

Data set [3] has as its system isolated urethra of rabbits. The experiment in a line: In vitro α-adrenolytic activity on isolated urethra. The following applies: rabbit; negative log of molar concentration halving norepinephrine contraction-inducing activity.
Description: as §1, §2, §3
the pD'2 of the compounds on the urethra of rabbits, the pD'2 being the negative logarithm of that molar concentration of the product in the presence of which the contraction-inducing activity of norepinephrine is halved.

The nature of data set [4]: Toxicity: 50% lethal dose in mice (p.o. and i.v.). The settings on record: mouse, in vivo. The source says:
The following 50% lethal doses were obtained after oral administration (p.o.) and intravenous administration (i.v.) of the substances to mice.

In data set [5] the test system is toxicity of norepinephrine. Put plainly: In vivo adrenolytic activity: protection against norepinephrine-induced death in rats. The following applies: Rattus norvegicus, po; for responders at 50 mg/kg / responders at 25 mg/kg: 0.5 h, 30 min before i.v. norepinephrine 0.4 mg/kg; for responders at 50 mg/kg: 50 mg/kg p.o.; for responders at 25 mg/kg: 25 mg/kg p.o. How it is done:
Norepinephrine injected intravenously in high doses causes the death of 100% of the animals within 15 minutes of being injected. The cause of death is pulmonary edema due to the arterial hypertension induced by stimulation of the adrenergic receptors. The oral administration of α-adrenolytic substances before-hand enables the toxicity of norepinephrine to be reduced. The products are administered orally at times varying between 30 minutes and 6 hours before the intravenous injection (i.v.) of norepinephrine (0.4 mg/kg).

Data set [6] deals with arterial hypertension induced by norepinephrine. The experiment in a line: In vivo α-blocking activity in anesthetized rabbits: arterial pressure. The settings on record: Oryctolagus cuniculus, iv, norepinephrine-induced arterial pressure increase, read-out: ID50 with regard to arterial hypertension. The source says:
(§7) The "in vivo" α-blocking activity in terms of the urethral and vascular pressures in anesthetized rabbits was investigated by intravenous administration of the products B 1007, B 1024, B 1058, B 1125 and B 1134.
(§8) The intravenous injection of norepinephrine causes a dose-dependent increase in the arterial and urethral pressures in rabbits. α-Blocking substances injected intravenously antagonize these pressure increases as a function of dose. The 50% inhibitory dose (ID50), defined as being the dose of product which causes a 50% […] in the effects of norepinephrine on the arterial and urethral pressures, is calculated.

The subject of data set [7] is urethral hypertension induced by norepinephrine. Put plainly: In vivo α-blocking activity in anesthetized rabbits: urethral pressure. The following applies: Oryctolagus cuniculus, iv, norepinephrine-induced urethral pressure increase, read-out: ID50 with regard to urethral hypertension.
Description: as §7, §8

Setting [8] is: intravenous, read-out: LD50 i.v.

Counter-ions that a name gives are not always drawn. Like-named read-outs stand apart in the source and are kept apart here.

Regarding `Cc1ccc(C(C)C)c(OCCN2CCCC2)c1` [B 1007, 3-[2-(pyrrolidin-1-yl)ethoxy]-p-cymene hydrochloride], the Kb in data set [1] is 182 nM. Further, the “Arterial hypotension ED20” value in the data set on arterial pressure is given as 2 mg/kg. Moreover, the ED50 in data set [2] was found to be 0.35 mg/kg; in data set [6], 7.63 mg/kg; in data set [7], 0.34 mg/kg. Further, the “pD'2, α-blocking action towards norepinephrine on isolated urethra” value in data set [3] came to 6.88. The 50% lethal dose (LD50) in data set [4] (setting [8]) was 75 mg/kg; in data set [4] (oral, read-out: LD50 p.o.) it was 330 mg/kg. Also, the responders at 50 mg/kg in data set [5] stood at 60%.
In the case of `CC(=O)Oc1cc(C(C)C)c(OCCN2CCCC2)cc1C` [B 1024, 2-acetoxy-5-[2-(pyrrolidin-1-yl)ethoxy]-p-cymene hydrochloride], the Kb in data set [1] is 105 nM. The “Arterial hypotension ED20” value in the data set with arterial pressure amounted to 8 mg/kg. Moreover, the ED50 in data set [2] was 0.07 mg/kg; in data set [6], 4.14 mg/kg; in data set [7], 0.23 mg/kg. In addition, the “pD'2, α-blocking action towards norepinephrine on isolated urethra” value in data set [3] is recorded as 6.38. The median lethal dose (LD50) amounted to 18 mg/kg in data set [4] (setting [8]) and 100 mg/kg in data set [4] (oral, read-out: LD50 p.o.). Further, the responders at 25 mg/kg in data set [5] turned out to be 70%.
Turning to `Cc1cc(OCCN2CCCC2)c(C(C)C)cc1O` [B 1058, 2-hydroxy-5-[2-(pyrrolidin-1-yl)ethoxy]-p-cymene hydrochloride], the Kb in data set [1] was 66.1 nM. Also, the “pD'2, α-blocking action towards norepinephrine on isolated urethra” value in data set [3] is recorded as 6.69. In addition, the LD50 in data set [4] (setting [8]) worked out at 17 mg/kg; in data set [4] (oral, read-out: LD50 p.o.), 80 mg/kg. In data set [5], this molecule registered a responders at 50 mg/kg of 90%. Also, the ED50 in data set [6] was found to be 1.22 mg/kg; in data set [7] it was 0.13 mg/kg.
For `CCC(=O)Oc1cc(C(C)C)c(OCCN2CCCC2)cc1C` [B 1125], in data set [1], the Kb is 72.4 nM. In addition, in the data set with arterial pressure, the “Arterial hypotension ED20” value is on record as 12 mg/kg. The ED50 in data set [2] worked out at 0.09 mg/kg; in data set [6], 5.95 mg/kg; in data set [7], 0.36 mg/kg. Further, the “pD'2, α-blocking action towards norepinephrine on isolated urethra” value in data set [3] was found to be 6.25. Besides, in data set [4] (oral, read-out: LD50 p.o.), the median lethal dose (LD50) is about 300 mg/kg. The responders at 25 mg/kg in data set [5] was determined as 60%.
`CCCCCC(=O)Oc1cc(C(C)C)c(OCCN2CCCC2)cc1C` [B 1131]: the Kb in data set [1] was 105 nM. Besides, in data set [3], the “pD'2, α-blocking action towards norepinephrine on isolated urethra” value is listed as 6.12. The LD50 in data set [4] (oral, read-out: LD50 p.o.) was about 550 mg/kg. In addition, the responders at 50 mg/kg in data set [5] is 60%.
`CCCC(=O)Oc1cc(C(C)C)c(OCCN2CCCC2)cc1C` [B 1132, 2-butyryloxy-5-[2-(pyrrolidin-1-yl)-ethoxy]-p-cymene hydrochloride]: the Kb in data set [1] was 44.7 nM. In addition, the “pD'2, α-blocking action towards norepinephrine on isolated urethra” value in data set [3] was determined as 6.0. In addition, the 50% lethal dose (LD50) in data set [4] (oral, read-out: LD50 p.o.) was about 500 mg/kg. In addition, in data set [5], the responders at 50 mg/kg was found to be 90%.
Turning to `CCCCCCCCCC(=O)Oc1cc(C(C)C)c(OCCN2CCCC2)cc1C` [B 1134], the Kb in data set [1] is 269 nM. Further, the “Arterial hypotension ED20” value with arterial pressure is reported as 30 mg/kg. Moreover, the ED50 in data set [2] worked out at 0.11 mg/kg; in data set [6], 6.17 mg/kg; in data set [7], 0.48 mg/kg. Moreover, the “pD'2, α-blocking action towards norepinephrine on isolated urethra” value in data set [3] was 6.23. Moreover, the median lethal dose (LD50) in data set [4] (setting [8]) is 36 mg/kg; in data set [4] (oral, read-out: LD50 p.o.), about 400 mg/kg. In data set [5] (100 mg/kg p.o., 4 h before i.v. norepinephrine 0.4 mg/kg), this molecule displayed a responders at 100 mg/kg of 100%.
With `CC(=O)Oc1cc(C(C)C)c(OCCN(C)C)cc1C` [Thymoxamine, reference compound], the Kb in data set [1] is 56.2 nM. Besides, the “Arterial hypotension ED20” value with arterial pressure was 0.27 mg/kg. Moreover, the ED50 in data set [2] was determined as 0.09 mg/kg; in data set [6], 2.72 mg/kg; in data set [7], 0.5 mg/kg. In addition, in data set [3], the “pD'2, α-blocking action towards norepinephrine on isolated urethra” value amounted to 7.03. Besides, the LD50 in data set [4] (setting [8]) came to 72.5 mg/kg; in data set [4] (oral, read-out: LD50 p.o.), 300 mg/kg. In data set [5], this molecule came in with a responders at 50 mg/kg of 80%.
